# In patent publication US8791272B2, “Pyrazole compounds as CRTH2 antagonists” (Boehringer Ingelheim International GmbH, priority 2011, dated 2014):
# pKi: −log10 of the molar value.
# Biological target: human CRTH2 receptor (Homo sapiens (Human), UniProt Q9Y5Y4)
# Assay: CRTH2 receptor radioligand binding assay (SPA, [3H]-PGD2 displacement)
# Settings: [3H]-PGD2 1 nM, CHO-K1-hCRTH2 cell membranes, SPA format, 3 h room temperature
# Procedure: The binding of CRTH2 antagonists is determined using membranes prepared from Chinese hamster ovary cells (CHO-K1 cells) transfected with the human CRTH2 receptor (CHO-K1-hCRTH2 cells, Perkin Elmer, Cat No ES-561-C). To produce cell membranes the CHO-K1-hCRTH2 cells are cultured in suspension in CHO SFMII medium supplemented with 400 μg/ml G418. The cells are harvested by centrifugation at 300 g for 10 min at room temperature. The cell pellet is resuspended in Phosphate Buffer Saline (PBS) including a protease inhibitor mix (Complete, Roche) and adjusted to a concentration of 10E7 cells/ml. The CHO-K1-hCRTH2 cells are disrupted by nitrogen […] to obtain the membrane preparation. Cell debris is removed by centrifugation (500 g at 4° C., 30 min) and the supernatant is transferred into fresh tubes followed by a second centrifugation at 40000 g for 1 h at 4° C. to sediment the membranes. The membranes are suspended in SPA incubation buffer (50 mM Tris HCl, 10 mM MgCl2, 150 mM NaCl, 1 mM EDTA, pH 7.4) without bovine serum albumin, homogenized by passing through a single use needle (Terumo, 23G×1″), and stored in aliquots at −80° C.
# The CRTH2 receptor binding assay is performed in a scintillation proximity assay (SPA) format with the radioligand [^3H]-PGD2 (Perkin Elmer, NET616000MC). CHO-K1-hCRTH2 cell membranes are again homogenized by passing through a single use needle (Terumo, 23G×1″) and diluted in SPA incubation buffer in suitable concentrations (0.5-10 μg protein/well). The SPA assay is set up in 96 well microtiter plates (Perkin Elmer, CatNo. 6005040) in SPA incubation buffer with a final volume of 200 μl per well and final concentration of 50 mM Tris-HCl, 10 mM MgCl2, 150 mM NaCl, 1 mM EDTA pH 7.4, 0.1% bovine serum albumin). The SPA assay mixture contains 60 μl of the membrane suspension, 80 μl of Wheat Germ Agglutinin coated PVT beads (GE Healthcare, RPNQ-0001, 0.3 mg/well), 40 μl of [3H]-PGD2 diluted in SPA buffer to a final concentration of 1 nM (50 000 dpm) and 20 μl of the test compound (dissolved in dimethylsulfoxid). The SPA assay mixture is incubated for 3 h at room temperature. Bound radioactivity is determined with a scintillation counter (Micro Beta Trilux, Wallac).
# The binding of [^3H]-PGD2 to CHO-K1-hCRTH2 cell membranes is determined in the absence (total binding, Bo) and presence (non-specific binding, NSB) of unlabelled PGD2 (1 μM, Cayman Chemical, Cat No 12010) or a reference CRTH2 antagonist (10 μM CAY10471, Cayman Chemical, Cat No 10006735).
# Determination of the affinity of a test compound is calculated by subtraction of the non-specific binding (NSB) from the total binding (Bo) or the binding in the presence of the test compound (B) at a given compound concentration. […] The Bo-NSB value is set to 0% inhibition.
# Chain of human CRTH2 receptor (Q9Y5Y4 whole entry): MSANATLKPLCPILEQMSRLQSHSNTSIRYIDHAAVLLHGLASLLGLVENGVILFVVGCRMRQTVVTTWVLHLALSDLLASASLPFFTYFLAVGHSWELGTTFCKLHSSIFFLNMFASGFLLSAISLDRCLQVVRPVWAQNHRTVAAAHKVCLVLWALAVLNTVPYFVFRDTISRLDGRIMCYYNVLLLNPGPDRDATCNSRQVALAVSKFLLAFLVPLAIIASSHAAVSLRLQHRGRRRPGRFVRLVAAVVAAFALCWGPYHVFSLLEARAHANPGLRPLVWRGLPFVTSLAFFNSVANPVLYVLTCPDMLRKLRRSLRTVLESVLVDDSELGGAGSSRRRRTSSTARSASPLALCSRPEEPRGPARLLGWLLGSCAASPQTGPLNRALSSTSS
row,SMILES,pKi
1,CCCc1nn(Cc2ccc(NC(=O)c3ccc(C(F)(F)F)cc3C)cc2)c(C(C)C)c1CC(=O)O [Example 2.36],9.15
2,CCCc1nn(Cc2ccc(NC(=O)c3ccc(Cl)cc3)cc2)c(C(C)C)c1CC(=O)O [Example 2.37],9.40
3,CCCc1nn(Cc2ccc(NC(=O)c3ccc(Cl)cc3C)cc2)c(C(C)C)c1CC(=O)O [Example 2.38],9.00
4,CCCc1nn(Cc2ccc(NC(=O)c3ccccc3)cc2)c(C(C)C)c1CC(=O)O [Example 2.39],8.80
5,CCCc1nn(Cc2ccc(NC(=O)c3ccc(Cl)c(Cl)c3)cc2)c(C(C)C)c1CC(=O)O [Example 2.40],9.70
6,CCCc1nn(Cc2ccc(NC(=O)c3ccc(C(F)(F)F)cc3)cc2)c(C(C)C)c1CC(=O)O [Example 2.41],9.70
7,CCCc1nn(Cc2ccc(NC(=O)c3ccc4ccccc4c3)cc2)c(C(C)C)c1CC(=O)O [Example 2.42],10.00
8,"Cc1nn(Cc2ccc(/C=C/c3ccc(C(F)(F)F)cc3)cc2)c(C)c1CC(=O)O [Example 12.2, (3,5-Dimethyl-1-{4-[(E)-2-(4-trifluoromethyl-phenyl)-vinyl]-benzyl}-1H-pyrazol-4-yl)-acetic acid]",7.25
9,CCc1nn(Cc2ccc(OCc3ccc(Cl)c(C(F)(F)F)c3)cc2)c(CC)c1CC(=O)O [Example 13.7],8.32
